Test systems include A498; A549; EKVX; HCT-15; HOP-62; HT-29; Hs-578T; IGROV-1; MDA-N; Malme-3M; NCI-H23; NCI-H522; OVCAR-8; PC-3; RXF 393; SF-268; SF-539; SNB-19; SNB-75; U-251.
Common to all, as to experiment: NCI anticancer screen, dose series, 48 h

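Step 1: Grow cells in 96-well plates. Step 2: Expose to compound for 48 hours at 5 concentrations. Step 3: Interpolate endpoints linearly; if unreached, use highest concentration. The concentration for 50% growth inhibition is given as GI50.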 Calls of active or inactive are those of the source. No stated cut-off is given here; in the data, active = GI50 up to about 1.1 µM and inactive = higher.

Regarding `CCCC(=O)OC(OC(=O)CCC)c1ccc([N+](=O)[O-])o1`, the GI50 in the assay on A498 was > 100 µM (inactive); in the assay with A549 it was > 100 µM (inactive); in the assay with EKVX it was 26.1 µM (inactive); in the assay on HCT-15, 15.7 µM; in the assay on HOP-62 it was 62.8 µM (inactive); in the assay with HT-29, 22.6 µM (inactive). Moreover, the GI50 with Hs-578T is 35.5 µM (inactive); in the assay on IGROV-1 it was 14.8 µM (inactive); in the assay with MDA-N, 20.1 µM (inactive); in the assay on Malme-3M, 19.2 µM (inactive); in the assay on NCI-H23 it was 22.1 µM (inactive); with NCI-H522, 13.4 µM (inactive). The GI50 in the assay with OVCAR-8 is 32.2 µM (inactive); with PC-3, 61.7 µM (inactive); in the assay with RXF 393 it was 17.2 µM (inactive); in the assay on SF-268, 65.6 µM (inactive); in the assay with SF-539 it was 35.7 µM (inactive); in the assay on SNB-19, > 100 µM (inactive). For the same compound, the GI50 in the assay on SNB-75 was > 100 µM (inactive); in the assay on U-251 it was 34.3 µM (inactive).
For the compound `C=CCC(C(=O)O)c1ccccc1` (stereo not given), the GI50 in the assay with A498 was > 100 µM (inactive); with A549 it was > 100 µM (inactive); in the assay with EKVX, > 100 µM (inactive); in the assay on HCT-15, over 100 µM; in the assay with HOP-62, > 100 µM (inactive); in the assay on HT-29, > 100 µM (inactive). Also, the GI50 in the assay with Hs-578T, in the assay with IGROV-1, with MDA-N, with Malme-3M, in the assay with NCI-H23 and with NCI-H522 was > 100 µM (inactive) throughout. The GI50 in the assay on OVCAR-8, in the assay on PC-3, with RXF 393, with SF-268, in the assay on SF-539 and with SNB-19 was > 100 µM (inactive) throughout. Further, the GI50 in the assay on SNB-75 and in the assay with U-251 was > 100 µM (inactive) in each case.
`O=C1O/C(=C(\Br)c2ccc([N+](=O)[O-])cc2)c2ccccc21`: the GI50 in the assay on A498 is > 100 µM (inactive); in the assay with A549, > 100 µM (inactive); in the assay on EKVX it was > 100 µM (inactive); in the assay with HCT-15, over 50.9 µM; in the assay on HOP-62 it was > 80.9 µM (inactive); in the assay on HT-29, 41.1 µM (inactive). The GI50 was 74.8 µM (inactive) in the assay with Hs-578T; > 100 µM (inactive) in the assay with IGROV-1; > 66.2 µM (inactive) in the assay with MDA-N; > 49.9 µM (inactive) in the assay on Malme-3M; > 100 µM (inactive) with NCI-H23; 38.5 µM (inactive) in the assay on NCI-H522. The GI50 in the assay on OVCAR-8 is > 76.6 µM (inactive); in the assay on PC-3, > 100 µM (inactive); in the assay on RXF 393 it was > 100 µM (inactive); in the assay with SF-268 it was > 74 µM (inactive); in the assay on SF-539, > 100 µM (inactive); in the assay with SNB-19 it was > 100 µM (inactive). In addition, the results for the GI50 in the assay with SNB-75 and in the assay with U-251 were > 78.3 µM (inactive) and 73.3 µM (inactive), respectively.
Regarding `N#Cc1[nH]c(=O)n(-c2ccc([N+](=O)[O-])cc2)c1N`, the GI50 with A498 was > 10 µM (inactive); in the assay on A549 it was > 10 µM (inactive); in the assay with EKVX, > 10 µM (inactive); with HCT-15, over 10 µM; in the assay on HOP-62, > 10 µM (inactive); in the assay on HT-29, > 10 µM (inactive). The GI50 in the assay on Hs-578T, with IGROV-1, in the assay with MDA-N, with Malme-3M, in the assay with NCI-H23 and in the assay with NCI-H522 was > 10 µM (inactive) in each case. Also, the GI50 in the assay with OVCAR-8, with PC-3, with RXF 393, in the assay with SF-268, in the assay with SF-539 and with SNB-19 was > 10 µM (inactive) each time. In addition, the GI50 in the assay with SNB-75 and in the assay with U-251 was > 10 µM (inactive) each time.
Consider `O=C(NNC(=O)c1ccncc1)C(=O)Nc1cc(Cl)c(Cl)cc1Cl`, for which the GI50 is > 100 µM (inactive) with A498; > 100 µM (inactive) in the assay with A549; > 100 µM (inactive) with EKVX; over 100 µM in the assay with HCT-15; > 100 µM (inactive) in the assay with HOP-62; > 100 µM (inactive) with HT-29. Moreover, the GI50 in the assay with Hs-578T was > 100 µM (inactive); in the assay on IGROV-1, 45.6 µM (inactive); in the assay on MDA-N, > 100 µM (inactive); in the assay on Malme-3M it was > 100 µM (inactive); in the assay on NCI-H23, > 100 µM (inactive); with NCI-H522, > 100 µM (inactive). Also, the GI50 in the assay with OVCAR-8, in the assay with PC-3, with RXF 393, in the assay on SF-268, with SF-539 and in the assay with SNB-19 was > 100 µM (inactive) each time. Further, the GI50 in the assay on SNB-75 and in the assay on U-251 was > 100 µM (inactive) each time.
Consider `CCN(CC)CCNc1ccc2nc(C)n3c4ccc(OC)cc4c(=O)c1c23`, for which the GI50 in the assay with A498 is 3.7 µM (inactive); in the assay on A549, 0.668 µM (active); with EKVX it was 1.69 µM (inactive); in the assay with HCT-15, 1.22 µM; with HOP-62, 4.06 µM (inactive); in the assay with HT-29 it was 0.323 µM (active). Further, the GI50 in the assay with Hs-578T is 1.04 µM (active); with IGROV-1, 0.494 µM (active); in the assay on MDA-N it was 1.41 µM (inactive); with Malme-3M it was 5.33 µM (inactive); in the assay on NCI-H23, 2.06 µM (inactive); with NCI-H522, 0.272 µM (active). The GI50 is 0.575 µM (active) in the assay on OVCAR-8; 0.955 µM (active) in the assay on PC-3; 4.07 µM (inactive) in the assay on RXF 393; 0.979 µM (active) with SF-268; 1.91 µM (inactive) in the assay with SF-539; 1.03 µM (active) in the assay on SNB-19. The values for the GI50 in the assay with SNB-75 and in the assay with U-251 were 4.68 µM (inactive) and 4.39 µM (inactive), respectively.
As for `CCOC(CN(C)C(=O)Nc1cccc2ccccc12)OCC`, the GI50 was > 10 µM (inactive) with A498; > 10 µM (inactive) in the assay on A549; > 10 µM (inactive) in the assay on EKVX; over 10 µM with HCT-15; > 10 µM (inactive) in the assay with HOP-62; > 10 µM (inactive) in the assay with HT-29. In addition, the GI50 in the assay on Hs-578T, in the assay with IGROV-1, in the assay on MDA-N, with Malme-3M, in the assay with NCI-H23 and in the assay on NCI-H522 was > 10 µM (inactive) in each case. Besides, the GI50 with OVCAR-8, with PC-3, in the assay on RXF 393, with SF-268, in the assay with SF-539 and in the assay on SNB-19 was > 10 µM (inactive) each time. For the same compound, the GI50 in the assay with SNB-75 and with U-251 was > 10 µM (inactive) throughout.
On to `CNC/C(Cl)=N/S(=O)(=O)c1ccc(C)cc1`, for which the GI50 with A498 was 20 µM (inactive); with A549, 13.2 µM (inactive); in the assay on EKVX it was 15.6 µM (inactive); with HCT-15, 16.1 µM; in the assay with HOP-62 it was 14 µM (inactive); in the assay on HT-29, 19.2 µM (inactive). For the same compound, the GI50 is 28.8 µM (inactive) in the assay with Hs-578T; 17.2 µM (inactive) with IGROV-1; 6.85 µM (inactive) with MDA-N; 9.66 µM (inactive) with Malme-3M; 7.83 µM (inactive) in the assay with NCI-H23; 6.58 µM (inactive) with NCI-H522. For the same compound, the GI50 in the assay on OVCAR-8 was 18.9 µM (inactive); with PC-3, 9.59 µM (inactive); with RXF 393, 2.2 µM (inactive); in the assay with SF-268, 19.5 µM (inactive); in the assay with SF-539, 9.71 µM (inactive); in the assay with SNB-19, 20.4 µM (inactive). For the same compound, the GI50 was 5.18 µM (inactive) in the assay on SNB-75 and 6.93 µM (inactive) with U-251.
Take `O=C1c2ccccc2C(=O)c2c(NCCCNCCO)ccc(NCCCNCCO)c21`: the GI50 was 15.9 µM (inactive) in the assay with A498; 11.5 µM (inactive) in the assay with A549; 11.8 µM (inactive) in the assay on EKVX; 12.9 µM in the assay with HCT-15; 5.35 µM (inactive) in the assay on HOP-62; 4.82 µM (inactive) with HT-29. Moreover, the GI50 in the assay on Hs-578T was 5.52 µM (inactive); in the assay with IGROV-1 it was 15.7 µM (inactive); in the assay on MDA-N, 7.48 µM (inactive); with Malme-3M, 13.9 µM (inactive); with NCI-H23 it was 10.7 µM (inactive); in the assay on NCI-H522, 3.03 µM (inactive). Further, the GI50 with OVCAR-8 is 7.74 µM (inactive); in the assay on PC-3, 7.67 µM (inactive); with RXF 393 it was 4.69 µM (inactive); in the assay on SF-268 it was 4.82 µM (inactive); with SF-539, 4.24 µM (inactive); in the assay with SNB-19, 5.11 µM (inactive). Besides, the results for the GI50 with SNB-75 and in the assay on U-251 were 7.13 µM (inactive) and 5.36 µM (inactive), respectively.
On to `CCOC(=O)C1=C(C)NC(C)=C(C(=O)OCCNC(=O)c2ccc(N=[N+]=[N-])cc2)C1c1ccccc1C(F)(F)F` (stereo not given) [AZIDOPINE], for which the GI50 in the assay with A498 was > 10 µM (inactive); in the assay on A549 it was 8 µM (inactive); in the assay with EKVX it was 10.7 µM (inactive); with HCT-15, 8.45 µM; in the assay with HOP-62, > 21.5 µM (inactive); in the assay with HT-29 it was 9.46 µM (inactive). For the same compound, the GI50 was 12.7 µM (inactive) with Hs-578T; 18.7 µM (inactive) in the assay with IGROV-1; 10.2 µM (inactive) in the assay with MDA-N; 14 µM (inactive) in the assay with Malme-3M; 11.3 µM (inactive) with NCI-H23; 8.39 µM (inactive) in the assay on NCI-H522. The GI50 in the assay on OVCAR-8 was 14.8 µM (inactive); with PC-3, 3.28 µM (inactive); in the assay on RXF 393 it was 9.57 µM (inactive); in the assay on SF-268, 10.3 µM (inactive); in the assay with SF-539 it was 19.1 µM (inactive); in the assay on SNB-19 it was 15.4 µM (inactive). The GI50 was > 10 µM (inactive) in the assay on SNB-75 and 10.9 µM (inactive) in the assay with U-251.
